Experimental data from patent US6391880B1, “Heterocyclic compounds useful as oxido-squalene cyclase inhibitors” (Zeneca Limited, priority 1997, dated 2002).

Key:
[1] = biological target: T1, rat microsomal oxido-squalene cyclase (Rattus norvegicus, UniProt P48450); assay: In vitro test to measure inhibition of oxido-squalene cyclase; assay type: biochemical; conditions: at a concentration of 0.1 μM; rat liver microsomes
T1 construct: Microsomes are prepared from rat liver according to methods known in the art; from tissue; host or cells: rat liver microsomes
T1 sequence (P48450 1-733): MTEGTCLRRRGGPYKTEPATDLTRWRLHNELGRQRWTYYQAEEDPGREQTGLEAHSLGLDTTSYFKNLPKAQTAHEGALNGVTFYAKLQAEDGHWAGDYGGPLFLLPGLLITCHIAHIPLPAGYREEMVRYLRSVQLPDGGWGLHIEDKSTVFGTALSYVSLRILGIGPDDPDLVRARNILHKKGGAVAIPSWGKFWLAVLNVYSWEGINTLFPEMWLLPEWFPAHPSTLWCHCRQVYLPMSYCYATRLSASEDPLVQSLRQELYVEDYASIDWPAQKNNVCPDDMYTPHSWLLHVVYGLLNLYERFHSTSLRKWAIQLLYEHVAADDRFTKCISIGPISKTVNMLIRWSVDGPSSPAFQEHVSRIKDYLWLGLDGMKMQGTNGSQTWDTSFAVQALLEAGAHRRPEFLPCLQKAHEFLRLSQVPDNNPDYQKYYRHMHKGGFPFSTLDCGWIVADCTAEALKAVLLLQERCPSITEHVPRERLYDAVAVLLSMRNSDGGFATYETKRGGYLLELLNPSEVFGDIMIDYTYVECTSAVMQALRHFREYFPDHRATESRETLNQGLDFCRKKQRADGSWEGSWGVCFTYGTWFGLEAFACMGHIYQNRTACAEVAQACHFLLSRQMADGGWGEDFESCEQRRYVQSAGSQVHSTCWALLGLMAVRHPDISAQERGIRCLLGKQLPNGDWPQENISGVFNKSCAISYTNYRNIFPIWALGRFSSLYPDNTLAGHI
Description: (a) In Vitro Test to Measure Inhibition of Oxido-Squalene Cyclase
This test measures the inhibition of microsomal oxido-squalene cyclase in vitro by compounds at set concentrations in the incubation medium.
Microsomes are prepared from rat liver according to methods known in the art, for example, the method described in published European Patent Application No 324,421 and stored in liquid nitrogen prior to assay. Assay vials are kept at 37° C. throughout the incubation. The microsomes typically contain 15-20 mg of protein per ml of microsomes. For assay, 1 ml of microsomes are diluted by the addition of 722 μl of 50 mM phosphate buffer pH 7.4.
Phosphate buffered Tween 80 (polyoxyethylene sorbitan […]) is prepared by adding 0.1 g Tween 80 to 100 ml of 50 mM phosphate buffer.
A stock solution of oxido-squalene is made up as a solution in ethanol (0.65 mg. ml.^−1). 18 μl of radio-labelled oxido-squalene (1 μCi.ml^−1) is evaporated to dryness under a stream of nitrogen and redissolved in 1 ml of ethanol and 1 ml of the stock solution of oxido-squalene is added.
The test compound is dissolved in dimethyl sulphoxide to give a 10^−4M stock solution. […]
The samples are then placed in a water bath at 80° C. for 2 hours to saponify. […] Reaction rate is measured as the conversion of oxido-squalene to lanosterol, and the effects of test compounds are expressed as an inhibition of this process.

[2] = system: rat cholesterol biosynthesis; assay: In vivo test to measure inhibition of oxido-squalene cyclase / cholesterol biosynthesis in the rat; conditions: dosed at 2 mg/kg, oral
Description: (b) In Vivo Test to Measure Inhibition of Oxido-Squalene Cyclase
The ability of a compound to inhibit oxido-squalene cyclase and/or inhibit cholesterol biosynthesis may be assessed by a routine laboratory procedure carried out in the rat. The test involves administration of the compound to rats on a reversed lighting regimen. Female rats (35-55 g) are housed in reverse lighting conditions (red light from 0200 h-1400 h) for a period of about 2 weeks prior to test. Animals are allowed free access to chow and drinking water throughout this period. At test, animals should weigh 100-140 g. The rats are dosed orally with the compound (typically 10-50 mg/kg) formulated in apolyethylene glycol/hydroxypropylmethyl cellulose mix. After 1 hour the rats are given […] sodium mevalonate (15 μCi/kg) intraperitoneally. Two hours after administration of the compound the rats are terminated and a piece of liver removed and weighed. The tissue is saponified at 80° C. for 2 hours in an ethanolic/potassium hydroxide solution (80% w/v aqueous KOH diluted 1:10 with ethanol). Water (2 ml) is added and the mixture extracted with iso-hexane (2×5 ml). The organic extracts are combined, evaporated to dryness under a stream of nitrogen and the residue is dissolved in a mixture of acetonitrile/iso-propanol (300 μl). […] The radio-label content of each fraction is assessed using a radio chemical flow detector. […]

Row | Compound | melting point | inhibition of rat microsomal oxido-squalene cyclase [1] | inhibition of rat cholesterol biosynthesis [2]
1 | O=C(C1CCN(S(=O)(=O)c2ccc(Br)cc2)CC1)N1CCC(c2ccncc2)CC1 | 154 to 155 °C |  | 
2 | O=C(N1CCC(c2ccncc2)CC1)N1CCN(S(=O)(=O)c2ccc(Br)cc2)CC1 [Example 2] |  | about 94% | about 85%
